In paper PMC10232370 (2023):
Where two headings read alike, the source gives them in different places.

Key:
[1] = test system: Cy5-2DCS model with two A bulges (RNA, mismatch bulge abasic) GGGUUUAAUAGAUACGAAAGUACUAAUUGGAUCC; test: microscale thermophoresis
[2] = test system: Cy5-2DCS model fully base paired (RNA, hairpin) GGGUUUAAUUAGAUACGAAAGUAUCUAAUUGGAUCC; test: microscale thermophoresis; settings: no saturable binding
[3] = test system: Cy5-5'GAU/3'C_A mimic (minimized pre-miR-155 A bulge) (RNA, mismatch bulge abasic) GUAAUGAUUACGAAAGUAACAUUGC; test: microscale thermophoresis
[4] = test system: Cy5-5'GAU/3'CUA mimic (A bulge to AU pair) (RNA, hairpin) GUAAUGAUUACGAAAGUAAUCAUUGC; test: microscale thermophoresis; settings: no saturable binding
[5] = test system: pre-miR-155 A bulge with 2-aminopurine (2AP) (RNA, mismatch bulge abasic, 2-aminopurine in place of the bulged A) GUAAUGAUUACGAAAGUAACAUUGC; test: 2-aminopurine fluorescence titration
[6] = test system: Cy5-labelled JUN IRES model (RNA, mRNA element) GCAGUAUAGGAAACUAACUGC; test: Cy5 fluorescence titration
[7] = test system: JUN IRES fully paired control (A bulge to AU pair), Cy5 (RNA, mRNA element) GCAGUAUAGGAAACUAUACUGC; test: Cy5 fluorescence titration; settings: no saturable binding
[8] = test system: JUN IRES A bulge model with 2AP (5'UAU/3'A_A) (RNA, mRNA element, 2-aminopurine in place of the bulged A) GCAGUAUAGGAAACUAACUGC; test: 2-aminopurine fluorescence titration
[9] = test system: Cy5-labelled MYC IRES 5'UUCG/3'ACCC 2x2 internal loop model (RNA, mRNA element) GGGGGCUUCGCCUCUGGCCCAGCCCUC; test: Cy5 fluorescence titration
[10] = test system: MYC IRES fully paired control RNA (RNA, mRNA element) GGGGGCUUCGCCUCUGGCGAAGCCCUC; test: Cy5 fluorescence titration
[11] = test system: pre-miR-155 (wild type) (RNA, miRNA) GGCUGUUAAUGCUAAUCGUGAUAGGGGUUUUUGCCUCCAACUGACUCCUACAUAUUAGCAUUAACAG; test: competition with 2AP-labelled RNA; settings: RIBOTAC 5 µM, 2AP-labelled A bulge RNA 1 µM; unlabelled pre-miR-155 as competitor
[12] = test system: pre-miR-155 +U49 mutant (A bulge to AU pair) (RNA, miRNA) GGCUGUUAAUGCUAAUCGUGAUAGGGGUUUUUGCCUCCAACUGACUCCUAUCAUAUUAGCAUUAACAG; test: competition with 2AP-labelled RNA; settings: RIBOTAC 5 µM, 2AP-labelled A bulge RNA 1 µM; mutant does not compete
[13] = test system: JUN IRES 2AP control RNA (bulge converted to base pair) (RNA, mRNA element, 2-aminopurine (position not given)) GCAGUAUAGGAAACUAUACUGC; test: 2-aminopurine fluorescence titration

Q: With `CCCCCCCCCCCc1c(CCCCCCCCCCC)[n+](-c2c(C(C)C)cccc2C(C)C)cn1-c1c(C(C)C)cccc1C(C)C` as the compound, how does the Kd [1] read?
A: The Kd was 1.2 ± 0.1 µM.

Q: What about the binding [2] of the same compound?
A: Its binding is “no”.

Q: What about the Kd [3] of the same compound?
A: Its Kd is 0.8 ± 0.1 µM.

Q: And the binding [4]?
A: The binding was “no”.

Q: And the “Kd,app” value ([5]; apparent, error printed as 1.2)?
A: Its value is 3.9 ± 1 µM.

Q: Which results are given for `CCCNC(=O)CCc1c(C)n(-c2c(C(C)C)cccc2C(C)C)c[n+]1-c1c(C(C)C)cccc1C(C)C`?
A: Kd ([3]; similar affinity to C1): 1.1 ± 0.1 µM; binding ([5]; similar affinity to C1): yes

Q: Which Kd [6] does the source give for `CCOC(=O)C1=C(Nc2ccccc2)S/C(=C\c2ccc(O)c(OCCOCCOCCOCCNC(=O)CCNc3nc(Nc4ccc(C5=NCCN5)cc4)nc(Nc4ccc(C5=NCCN5)cc4)n3)c2)C1=O` here?
A: Its Kd is 0.4 ± 0.1 µM.

Q: What about the binding [7] of the same compound?
A: The binding was “no”.

Q: And the EC50 [8]?
A: Its EC50 is 3.5 ± 0.9 µM.

Q: Which Kd [9] does the source give for `CCOC(=O)C1=C(Nc2ccccc2)S/C(=C\c2ccc(O)c(OCCOCCOCCOCCNC(=O)c3cc(NC(=O)Nc4ccc(C5=NCCN5)cc4)cc(NC(=O)Nc4ccc(C5=NCCN5)cc4)c3)c2)C1=O` here?
A: Its Kd is 0.9 ± 0.2 µM.

Q: What about the binding ([10]; no saturable binding) of the same compound?
A: The binding was “no”.

Q: How did the Kd [6] turn out when `CCOC(=O)C1=C(Nc2ccccc2)S/C(=C\c2ccc(OCCOCCOCCOCCNC(=O)CCNc3nc(Nc4ccc(C5=NCCN5)cc4)nc(Nc4ccc(C5=NCCN5)cc4)n3)c(O)c2)C1=O` was run?
A: Its Kd is 0.5 ± 0.2 µM.

Q: What about the binding [7] of the same compound?
A: Its binding is “no”.

Q: And the EC50 [8]?
A: Its EC50 is 1.8 ± 0.5 µM.

Q: How did the Kd [11] turn out when `CCOC(=O)C1=C(Nc2ccccc2)S/C(=C\c2ccc(OCCOCCOCCOCCNC(=O)CCc3c(C)n(-c4c(C(C)C)cccc4C(C)C)c[n+]3-c3c(C(C)C)cccc3C(C)C)c(O)c2)C1=O` was run?
A: The Kd was 2.2 ± 0.9 µM.

Q: What about the binding [12] of the same compound?
A: Its binding is “no”.

Q: `CCOC(=O)C1=C(Nc2ccccc2)S/C(=C\c2ccc(OCCOCCOCCOCCNC(=O)c3cc(NC(=O)Nc4ccc(C5=NCCN5)cc4)cc(NC(=O)Nc4ccc(C5=NCCN5)cc4)c3)c(O)c2)C1=O` was tested. Which Kd [9] did it give?
A: The Kd was 1.1 ± 0.1 µM.

Q: And the binding ([10]; no saturable binding)?
A: Its binding is “no”.

Q: With `CNc1nc(Nc2ccc(C3=NCCN3)cc2)nc(Nc2ccc(C3=NCCN3)cc2)n1` as the compound, how does the Kd [6] read?
A: The Kd was 3.2 ± 2 µM.

Q: And the EC50 [8]?
A: The EC50 was 1.1 ± 0.2 µM.

Q: And the EC50 [13]?
A: Its EC50 is > 50 µM.

Q: `O=C(Nc1ccc(C2=NCCN2)cc1)Nc1cc(NC(=O)Nc2ccc(C3=NCCN3)cc2)cc(C(=O)O)c1` was tested. Which Kd [9] did it give?
A: The Kd was 2.3 ± 1 µM.

Q: And the binding [10]?
A: The binding was “no”.
